The record followed here is patent publication US10774056B2, “Substituted piperazines as selective HDAC1,2 inhibitors” (REGENACY PHARMACEUTICALS, LLC, priority 2016, dated 2020).

In one series the target is HDAC1 (Homo sapiens (Human), UniProt Q13547). Briefly: HDAC enzyme assay. It is filed as biochemical. The settings on record: 10 min preincubation, 16 μM substrate.
The nature of series [1]: Rat cassette dosing pharmacokinetics (IV and PO). It is filed as in vivo. The settings on record: male SD rats, plasma.
The target of the next series is hERG (Homo sapiens (Human), UniProt Q12809). Briefly: hERG inhibition, whole-cell patch clamp. It is filed as cell-based. The settings on record: HEK293 cells stably transfected with hERG, tail current at -50 mV. For orientation: The hERG channel carries a current that helps repolarise heart muscle cells.
Sequence of hERG (Q12809 whole entry): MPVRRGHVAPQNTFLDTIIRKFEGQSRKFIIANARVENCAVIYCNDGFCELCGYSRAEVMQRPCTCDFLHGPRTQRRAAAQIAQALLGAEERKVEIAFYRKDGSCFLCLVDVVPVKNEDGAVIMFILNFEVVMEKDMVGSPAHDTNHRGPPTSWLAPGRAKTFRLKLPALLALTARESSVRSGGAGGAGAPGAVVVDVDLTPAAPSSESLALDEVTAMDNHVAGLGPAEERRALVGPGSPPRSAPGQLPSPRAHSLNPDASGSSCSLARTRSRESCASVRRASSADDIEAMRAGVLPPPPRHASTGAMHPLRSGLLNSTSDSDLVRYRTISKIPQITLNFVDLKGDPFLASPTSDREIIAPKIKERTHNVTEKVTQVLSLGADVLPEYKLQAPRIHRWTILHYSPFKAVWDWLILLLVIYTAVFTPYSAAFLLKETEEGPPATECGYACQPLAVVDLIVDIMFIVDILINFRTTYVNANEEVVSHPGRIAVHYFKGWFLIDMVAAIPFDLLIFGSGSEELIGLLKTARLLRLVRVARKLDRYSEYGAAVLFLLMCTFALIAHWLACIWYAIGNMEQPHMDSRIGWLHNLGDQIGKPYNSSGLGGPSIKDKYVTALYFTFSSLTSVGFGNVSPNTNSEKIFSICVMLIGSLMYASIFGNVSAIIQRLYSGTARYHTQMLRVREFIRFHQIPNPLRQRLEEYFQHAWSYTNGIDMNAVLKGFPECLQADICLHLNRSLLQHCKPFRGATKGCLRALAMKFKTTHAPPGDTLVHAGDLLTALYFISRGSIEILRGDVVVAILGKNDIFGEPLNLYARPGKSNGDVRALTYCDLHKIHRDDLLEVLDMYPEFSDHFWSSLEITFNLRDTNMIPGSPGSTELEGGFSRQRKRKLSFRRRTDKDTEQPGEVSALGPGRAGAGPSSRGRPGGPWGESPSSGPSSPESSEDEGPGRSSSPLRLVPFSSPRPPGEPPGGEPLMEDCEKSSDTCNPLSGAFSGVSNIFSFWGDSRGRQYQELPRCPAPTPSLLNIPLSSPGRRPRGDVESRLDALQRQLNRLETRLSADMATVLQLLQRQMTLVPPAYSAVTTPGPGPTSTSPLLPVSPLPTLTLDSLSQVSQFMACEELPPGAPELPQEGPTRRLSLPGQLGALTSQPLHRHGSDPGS
The test system of series [2] is CYP1A2, CYP2C9, CYP2C19, CYP3A4, CYP2D6. Briefly: Cyp inhibition in human liver microsomes (all isozymes). It is filed as in vitro ADME. Here is the method:
For Cyp inhibition, human liver microsomes from BD Gentest were incubated with Compound 028 or Compound 032 (10, 3.33, 1.11, 0.37, 0.12, 0.04, 0.01 μM) and substrate (CYP1A2: Phenacetin at 30 μM; CYP2C9: Diclofenac at 10 μM; CYP2C19: S-Mephenytoin at 35 μM; CYP3A4: Midazolam at 5 μM and Testosterone at 80 μM; CYP2D6: Bufuralol at 10 μM) for the following incubation times: CYP1A2, 2C9, 2D6: 10 minutes, 37° C.; CYP2C19: 45 minutes, 37° C.; CYP3A4: 5 minutes, 37° C. Substrate conversion was measured by liquid chromatography/mass spectrometry/mass spectrometry (LC/MS/MS). Inhibition was calculated by curve fitting in Graph Pad Prism.
Background: Microsomes from liver hold many membrane-bound enzymes, among them those of drug oxidation.

Sequence of HDAC1 (Q13547 whole entry): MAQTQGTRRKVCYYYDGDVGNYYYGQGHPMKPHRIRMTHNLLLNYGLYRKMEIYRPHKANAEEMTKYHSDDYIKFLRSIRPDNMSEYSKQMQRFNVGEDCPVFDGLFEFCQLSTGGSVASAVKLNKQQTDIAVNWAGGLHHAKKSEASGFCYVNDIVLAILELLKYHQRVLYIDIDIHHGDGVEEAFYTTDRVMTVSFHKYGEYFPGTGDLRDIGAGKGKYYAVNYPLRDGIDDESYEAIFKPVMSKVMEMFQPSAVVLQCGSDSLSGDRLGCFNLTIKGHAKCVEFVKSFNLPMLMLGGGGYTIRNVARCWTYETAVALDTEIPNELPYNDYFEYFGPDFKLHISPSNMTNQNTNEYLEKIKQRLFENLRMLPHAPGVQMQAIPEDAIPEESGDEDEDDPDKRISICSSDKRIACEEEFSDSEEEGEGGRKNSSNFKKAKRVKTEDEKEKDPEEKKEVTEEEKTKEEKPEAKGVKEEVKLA
Method for hERG: For hERG inhibition assays, the cells used were HEK293 cells stably transfected with hERG (cell line obtained from Cytocentrics Inc. 3463 Magic Drive San Antonio, Tex. 78229). Composition of External Solution: NaCl, 137 mM; KCl, 4 mM; MgCl2, 1.0 mM; CaCl2, 1.8 mM; HEPES 10 mM; Dextrose 11 mM; Adjusted to a pH of 7.4 with NaOH. Composition of Internal Solution: KCl, 130.0 mM; MgCl2, 1.0 mM; HEPES, 5.0 mM; EGTA, 5.0 mM; NaCl 7.0 mM. Adjusted to a pH of 7.2 using KOH. Test Concentrations: 0.1, 1, 10, 100 μM. Vehicle: DMSO. Experiments were performed at 34+/−1° C. Current was recorded using the whole-cell patch clamp technique on the Cytopatch automated platform. hERG current was elicited with the following voltage protocol: hERG current amplitude was measured as the peak current at −50 mV (tail current). […] Each cell served as its own control. Data are presented as the IC50 calculated by non-linear regression analysis.

Consider `Nc1ccc(-c2ccccc2)cc1NC(=O)c1ncc(N2CCNCC2)s1` [Compound 049], for which, on HDAC1, the IC50 (commonly the concentration needed to halve the response being measured) was under 0.01 µM.

Consider `CN1CCN(c2ncc(C(=O)Nc3cc(-c4cccs4)ccc3N)s2)CC1` [Compound 030], for which, in series [1] (PO 5 mg/kg), the AUC (in general, concentration integrated over time) worked out at 15300 ng·h/mL and the Cmax (as a rule, the highest concentration seen after dosing) stood at 944 ng/mL. Further, the half-life in series [1] (PO 5 mg/kg, read-out: PO T1/2 (converted)) is 12.8 h. Moreover, in series [1] (5 mg/kg, oral AUC to IV AUC, dose adjusted), the bioavailability was found to be 170%. For the same compound, the IC50 at hERG turned out to be 70 µM. The same compound showed an IC50 in series [2] of over 10 µM.
